Data as given in patent publication US10967038B2, “Use of cell-permeable peptide inhibitors of the JNK signal transduction pathway for the treatment of chronic or non-chronic inflammatory eye diseases” (priority 2010, dated 2021).

How the values were obtained:
Type in all cases: in vivo, rat
[1] = test system: phospho-p44/42 MAPK (Erk1/2); assay: Immunohistochemistry of phospho-p44/42 MAPK (Erk1/2) in EIU eyes; settings: 24 h
Method: (§1) A second set of experiment was designed to evaluate the anti-inflammatory effect of the JNK-inhibitor (poly-)peptide of SEQ ID NO: 11 at the cellular and tissue level as well as the biodistribution of this molecule 24 hours after administration. Rats were randomized into 11 experimental groups. 6 groups of rats with uveitis: untreated uveitic rats, rats injected intravenously with NaCl or the JNK-inhibitor (poly-)peptide of SEQ ID NO: 11 and rats injected intravitreously with the vehicle, the JNK-inhibitor (poly-)peptide of SEQ ID NO: 11 or dexamethasone. The 5 additional groups without uveitis were: untreated healthy rats, rats treated by NaCl IV or the JNK-inhibitor (poly-)peptide of SEQ ID NO: 11 IV and rats injected IVT with NaCl or the JNK-inhibitor (poly-)peptide of SEQ ID NO: 11. Three eyes from separate rats were collected per group and used for immunohistochemistry.
To analyze the ERK and p38 MAPK pathways, blots were sequentially incubated with a rabbit phospho-p44/42 MAPK (Erk1/2) (Thr202/Tyr204) (4370) primary antibody (or rabbit phospho-p38 MAPK (Thr180/Tyr182) (9215) antibody) and a horseradish peroxidase-conjugated goat anti-rabbit IgG (H+L) (PI-1000—Vector Laboratories, Clinisciences, Montrouge, France) secondary antibody at dilution 1:5000. […]

[2] = Ocular biodistribution by immunohistochemistry against SEQ ID NO: 11
Method: For immunohistochemistry, eyeballs were collected and fixed for 1 h at room temperature in phosphate buffered saline (PBS) containing 4% paraformaldehyde before being rinsed overnight in PBS. The next day, samples were embedded and frozen in optimal cutting-temperature (OCT) compound (Tissue-Tek®, Sakura Finetek, Zoeterwoude, Netherland) and stored at −80° C. Frozen antero-posterior sections of eyes (10 μm thick) were performed at the optic nerve level using a cryostat (Leica CM 3050S, Rueil-Malmaison, France) and mounted on super-frost slides for immunohistochemical analysis.
as §1
Immunostaining of the JNK-inhibitor (poly-)peptide of SEQ ID NO: 11 was performed on healthy and uveitic eyes to study its ocular biodistribution after systemic or local administration. Briefly, sections were permeabilized as described above before being sequentially incubated with an anti-SEQ ID NO: 11 purified rabbit IgG and a secondary Alexa 594 (red)-conjugated goat anti-rabbit IgG (Invitrogen, Cergy Pontoise, France) diluted 1:100 and 1:250 in PBS respectively. Immunostaining of untreated healthy and uveitic eyes were used as negative controls. Nuclei were stained with DAPI before mounting and observation.

[3] = test system: inducible nitric oxide synthase (iNOS); assay: iNOS expression in ocular tissues (immunohistochemistry, semi-quantitative RT-PCR); settings: IV or IVT, 24 h, vs control eyes
Method: Retinas and RPE/choroid/sclera complexes were also collected at 24 hours to analyze iNOS mRNA levels by RT-PCR and c-Jun phosphorylation state by Western-Blot. Tissues were collected only from eyes treated by IV (intravenous) injection of vehicle, IV injection of the JNK-inhibitor (poly-)peptide of SEQ ID NO: 11, IVT (intravitreal) injection of vehicle and IVT injection of the JNK-inhibitor (poly-)peptide of SEQ ID NO: 11 (n=2 eyes per condition collected from separate rats). Eyes were selected so that their EIU clinical score was representative of the mean of the experimental group they belong to, i.e 3 for eyes treated by IV and IVT injection of vehicle and 2 for eyes treated by IV or IVT injection of the JNK-inhibitor (poly-)peptide of SEQ ID NO: 11.
To characterize the cellular infiltrate, sections were double-stained with ED1 and iNOS. […] After staining nuclei with DAPI (Sigma-Aldrich, Saint-Quentin Fallavier, France), sections were mounted in PBS/Glycerol (1/1) and observed by fluorescence photomicroscopy (FXA, Microphot, Nikon, Melville, USA). […] ED1 positive cells and polymorphonuclear cells, identified by the shape of their nuclei stained with DAPI, were quantified on histological sections. […] Results were expressed as mean±standard error of the mean (SEM). […]

chemokines/cytokines = assay: Chemokine/Cytokine Multiplex Assay on ocular fluids and sera
Method: Aqueous humor and vitreous were collected and pooled from each enucleated eye. Ocular fluids were immediately centrifuged and the cell-free fractions were collected and frozen at −20° C. before analysis by Multiplex assay. Blood samples were first clotted at room temperature for 2 hours and then at 4° C. overnight. Serum was collected, centrifuged and the clear supernatant was collected and frozen at −20° C. before Multiplex analysis.
In a first set of experiment, 70 rats were randomized into 14 experimental groups with 5 rats per group. Uveitis was induced in each group and rats were killed 6 hours (4 groups), 24 hours (6 groups) and 48 hours (4 groups) after LPS challenge. For each time point tested (i.e. 6 h, 24 h and 48 h), rats treated by intravenous or intravitreous injections of vehicle (NaCl 0.9%) or the JNK-inhibitor (poly-)peptide of SEQ ID NO: 11 were compared to untreated control uveitic rats. Two additional groups, treated by intravenous injection of vehicle and intravitreal injection of dexamethasone were used at 24 hours. Clinical ocular inflammation was recorded only at 24 hours (see Scoring of Endotoxin-Induced Uveitis (EIU) section). At each time point, intraocular fluids from each eye (n=10 per group) and serum from each animal (n=5 per group) were used for Chemokine/Cytokine Multiplex Assay.
Intraocular fluids (diluted to obtain a final volume of 25 μL) and sera (25 μL of 1:5 dilution) were subjected to multiplex bead analysis. This method uses microspheres as the solid support for immunoassays12 and allows the titration of a greater number of cytokines with increased sensitivity than occurs with ELISA.13 For each sample, seventeen analytes were quantified simultaneously using the rat Cytokine/Chemokine-17plex kit (Milliplex Map Kit, Millipore, Saint-Quentin-en-Yvelines, France) according to the manufacturer's instructions: Chemokines MCP-1/CCL2, MIP-1α/CCL3, RANTES/CCL5, IP-10/CXCL10 (IFN-inducible protein-10) and GRO/KC; proinflammatory mediators IL-1[…], IL-18 and TNF-[…]; Th1/Th2/Th17 cytokines IL-2 and IFN-[…]/IL-4, IL-5, IL-6, IL-10 and IL-13/IL-17. The assay was performed in a 96-well filter plate and standard curves for each cytokine were generated with a Rat Cytokine Standard provided in the kit. All incubation steps were performed under medium orbital agitation and in the dark to protect the beads from light. Data acquisition and analysis were performed with the manager software version 4.1 (Bioplex; Bio-Rad) with four or five logistic parameters for standard curves. Detection thresholds for all the analytes were estimated around 1 to 10 pg/mL.

[4] = ocular fluids, IV injection, at 6 and 24 hours
[5] = ocular fluids, IV injection, at different time points
[6] = ocular fluids, IVT injection, at 6 hours, vs vehicle IVT
[7] = ocular fluids, IVT injection, at 24 hours, vs vehicle IVT
[8] = ocular fluids, treated versus untreated eyes, any tested time point

With CC(C)C[C@@H](NC(=O)[C@@H](Cc1ccccc1)NC(=O)[C@H]1CCCN1C(=O)[C@@H](CCC(N)=O)NC(=O)[C@H](NC(=O)[C@H]1CCCN1C(=O)[C@@H](CCCNC(=N)N)NC(=O)[C@@H](CO)NC(=O)[C@@H](CCC(N)=O)NC(=O)[C@H](N)CC(=O)O)C(C)C)C(=O)N[C@H](CC(N)=O)C(=O)N[C@H](CC(C)C)C(=O)N[C@@H](C(=O)N[C@@H](C(=O)N1CCC[C@@H]1C(=O)N[C@H](CCCNC(=N)N)C(=O)N[C@H](CCCCN)C(=O)N1CCC[C@@H]1C(=O)N[C@H](CCCNC(=N)N)C(=O)N1CCC[C@@H]1C(=O)N1CCC[C@@H]1C(=O)N[C@H](CCCNC(=N)N)C(=O)N[C@H](CCCNC(=N)N)C(=O)N[C@H](CCCNC(=N)N)C(=O)N[C@H](CCC(N)=O)C(=O)N[C@H](CCCNC(=N)N)C(=O)N[C@H](CCCNC(=N)N)C(=O)N[C@H](CCCCN)C(=O)N[C@H](CCCCN)C(=O)N[C@H](CCCNC(=N)N)C(=O)NCC(=O)O)[C@H](C)O)[C@H](C)O [SEQ ID NO: 11] the “effect on p-Erk1/2 signal in iris epithelium” value ([1]; iris) was “no effect”, the “effect on p-Erk1/2 signal in retinal Müller glial (RMG) cells” value ([1]; neuroretina, IV or IVT) was “no effect” and the “distribution in ocular tissues (immunoreactivity)” value (shortened to “distribution in ocular tissues”) ([2]; EIU eyes, 24 h after IV injection, occasional infiltrating inflammatory cells immunopositive) was “not detected in ocular tissues”. For the same molecule, the “distribution in ocular tissues” value ([2]; healthy eyes, 24 h after IV injection, 20 μg/kg) was “no signal was observed”, the “inflammatory cell infiltration in healthy eyes” value ([2]; healthy eyes, 24 h after IV or IVT) was “No inflammatory cell infiltration was observed” and the “distribution in ocular tissues” value ([2]; healthy eyes, 24 h after IVT injection, 0.2 μg/injection) was “distributed in almost all ocular tissues”. The “distribution in ocular tissues” value ([2]; uveitic eyes, 24 h after IVT injection, also in mobilized resident cells (microglial)) was “mostly found in ocular tissues like in healthy eyes”, the “number of iNOS positive cells” value [3] was “reduced” and the MCP-1 level (chemokines/cytokines; [4]) was “significant reduction”. For the same molecule, the MIP-1α level (chemokines/cytokines; [4]) was “significant reduction”, the RANTES level (chemokines/cytokines; [4]) was “significant reduction” and the GRO/KC level (chemokines/cytokines; ocular fluids, IV injection, at 6 hours) was “significantly reduced”. The IL-10 level (chemokines/cytokines; ocular fluids, IV injection, at 6 hours, not significantly) was “tended to increase”, the IL-6 level (chemokines/cytokines; [5]) was “significantly reduced” and the INF-γ level (chemokines/cytokines; [5]) was “significantly reduced”. For the same molecule, the TNF-α level (chemokines/cytokines; [5]) was “significantly reduced”, the IL-2 level (chemokines/cytokines; [6]) was “a trend to a decrease” and the IL-6 level (chemokines/cytokines; [6]) was “a trend to a decrease”. The MCP-1 level (chemokines/cytokines; [6]) was “a trend to a decrease”, the TNF-α level (chemokines/cytokines; [6]) was “a trend to a decrease” and the IL-2 level (chemokines/cytokines; [7]) was “marked decrease”. For the same molecule, the IL-13 level (chemokines/cytokines; [7]) was “increase”, the IL-1β level (chemokines/cytokines; [8]) was “did not differ” and the IL-4 level (chemokines/cytokines; [8]) was “did not differ”. The IL-18 level (chemokines/cytokines; [8]) was “did not differ”, the “IL-2 level (tended to be reduced)” value (chemokines/cytokines; serum, IV administration) was “not statistically significant” and the “MIP-1α level (tended to be reduced)” value (chemokines/cytokines; serum, IV administration) was “not statistically significant”. For the same molecule, the “IL-2 level (tended to be reduced)” value (chemokines/cytokines; serum, IVT administration) was “not statistically significant”.
